In patent US20090257999A1, “Method of preventing contrast-induced nephropathy” (Inotek Pharmaceuticals Corporation, priority 2007, published 2009):

Assays:
Assay type in all cases: in vivo, rat
[1] = test system: malondialdehyde (MDA) in kidneys; experiment: Kidney malondialdehyde (MDA) levels, Example 1; settings: at 96 hours
Experimental: (§1) Experimental model for assessing the effects of Metalloporphyrin A on CIN: Diabetic (n=8) for group #'s 1-9 or wild-type rats (n=10) for group #'s 10 and 11 were treated with drug 60 min prior to contrast agent administration. At the “0” time point, Iomeprol was administered with ensuing drug intervention dosing every 12 hours for Metalloporphyrin A from 24-84 hours or every 24 hours for NAC from 24-72 hours. At the 96 hour time point, kidneys were harvested for histopathology, MPO and MDA measurements. From 0-96 hours, plasma samples from all animals per group were screened for urea, creatinine, fractional excretion of Na^+ and NGAL.
Levels of malondialdehyde (MDA) in kidneys were determined as an indicator of lipid peroxidation following a protocol described previously (Davenport et. al. Clin. Transplant. 9 (3 Pt 1):171-51995).
Kidney tissue was weighed and homogenized in a 1.15% (wt/vol) KCl solution. A […] aliquot of homogenate was then removed and added to a reaction mixture containing […] 8.1% (wt/vol) lauryl sulfate, 1.5 mL 20% (vol/vol) acetic acid (pH 3.5), 1.5 mL 0.8% (wt/vol) thiobarbituric acid, and 700 mL distilled water. Samples were then boiled for one hour at 95° C. and centrifuged at 3000 g for 10 minutes. The absorbance of the supernatant was measured spectrophotometrically at […]. MDA levels were expressed as μM/100 mg wet tissue.

[2] = test system: diabetic rats; experiment: Histologic evaluation of kidney outer medulla damage, Example 1; settings: at 96 hours
Experimental: as §1
At postmortem, a […] section of kidney was removed and placed in formalin and processed through to wax. […] sections were cut and stained with hematoxylin and eosin. Histologic assessment of tubular necrosis was determined semi-quantitatively using a method modified from McWhinnie et al, Transplantation. 42(4):352-81986, 1986.
Histologic assessment of outer medulla damage was examined by an experienced morphologist, who was not aware of the sample identity. […]

[3] = test system: Neutrophil gelatinase-associated lipocalin (NGAL); experiment: Plasma NGAL by ELISA, Example 1; settings: diabetic rats + i.v. Iomeprol; Metalloporphyrin A 1 mg/kg or NAC 10 mg/kg; versus drug placebo; readings 0-96 hours
Experimental: as §1
Neutrophil gelatinase-associated lipocalin (NGAL) has recently been proposed as a real-time indicator of active kidney damage by Mori, K., Nakao, K., Kidney International (2007) 71, 967-970. The plasma from 5 different diabetic animals per experimental group were taken for measurement of NGAL by ELISA as outlined below:
1) For diabetic rats without contrast agent, non-diluted plasma was used. For diabetic rats with contrast agent, plasma samples were diluted 1:400 with saline prior to use.
100 microliter diluted/non-diluted plasma samples or recombinant NGAL protein (25-1000 ng/ml) were added to pre-coated ELISA plates containing a monoclonal antibody raised against NGAL. […]
5) Plates were read at an absorbance of 450 nm.

[4] = test system: ICAM-1, Nitrotyrosine and PAR expression; experiment: Immunohistochemical localization of ICAM-1, nitrotyrosine and poly(ADP-ribose) in kidney, Example 1; settings: diabetic rats + Iomeprol; metalloporphyrin A 1 mg/kg 60 min prior to Iomeprol, or NAC 10 mg/kg
Experimental: as §1
Rat kidneys fixed in 10% (wt/vol) neutral buffered paraformaldehyde and […] sections were prepared from paraffin-embedded tissues. After deparaffination, endogenous peroxidase was quenched using 0.3% (vol/vol) H2O2 in 60% methanol for 30 minutes. The sections were permeabilized using 0.1% (wt/vol) Triton X-100 in phosphate-buffered saline (PBS; 0.01 mol/L, pH 7.4) for 20 minutes. Nonspecific adsorption was minimized by incubating sections in 2% (vol/vol) normal goat serum in PBS for 20 minutes. Endogenous avidin- and biotin-binding sites were blocked by sequential incubation for 15 minutes with avidin (DBA, Milan, Italy) and biotin (DBA, Milan, Italy), respectively. The sections were then incubated overnight with primary antinitrotyrosine antibody (1:1000), anti-PAR antibody (1:500) and anti-ICAM-1 antibody (1:500). Separate sections were also incubated with control solutions consisting of PBS alone or a 1:500 dilution of nonspecific purified rabbit IgG (DBA). Specific labeling was detected using a biotin-conjugated goat antirabbit IgG (DBA) and avidin-biotin peroxidase (DBA). Samples were then viewed under a light microscope.

[5] = test system: diabetic rats; experiment: CIN model, Example 2: NAC and Metalloporphyrin A in diabetic rats; settings: diabetic (STZ) rats + Iomeprol, NAC 3-100 mg/kg i.v., or NAC 10-100 mg/kg + Metalloporphyrin A 1 mg/kg i.v., at −30 min
Experimental: Male Wistar rats (150-200 g; Harlan Nossanr) were housed in a controlled environment and provided with standard rodent chow and water. Diabetes was induced after 2 hours of fasting. The animals received a single 60 mg/kg intravenous (i.v.) injection of streptozotocin (Sigma, St. Louis, Mo.) in 10 mM sodium citrate buffer, pH 4.5 (see figure). Control non-diabetic animals were fasted and received citrate buffer alone. After 24 hours, animals with blood glucose levels greater than 250 mg/dl were considered diabetic. The diabetic state was confirmed by evaluating the blood glucose levels. Ten days following the induction of diabetes rats were anesthetized with 90 mg/kg ketamine i.m. and 10 mg/kg xylazine i.m. and were treated with the contrast agent iomeprol (10 mL/kg injected via the lateral tail vein) or with 0.9% normal saline. The contrast agent used was the low osmolar non-ionic monomer iomeprol (Iomeron, 400 mgI mL-1; Bracco SpA, Milan, Italy) with an osmolality of 726±34 mosmol/kg H2O.
Blood samples were collected via the lateral tail vein into S1/3 tubes containing serum gel at 0 and 24 hours. The samples were centrifuged (6000 r.p.m. for 3 min) to separate plasma. All plasma samples were analyzed for biochemical parameters within 24 hours after collection. Plasma and urine concentrations of creatinine were measured as indicators of impaired glomerular function. Creatinine clearance was calculated using the following formula (=UV/P), where U refers to Creatinine concentration in urine, V to urine volume/min and P to serum creatinine.
Protein concentration in urine was determined by Bio-Rad DC Protein Assay (BioRad, Richmond Calif.). The Bio-Rad DC protein assay is a colorimetric assay for protein concentration.

[6] = diabetic rats + i.v. Iomeprol, Metalloporphyrin A 30-1000 μg/kg or NAC 10 mg/kg i.p.
[7] = diabetic rats + i.v. saline (no contrast agent), Metalloporphyrin A 1000 μg/kg or NAC 10 mg/kg i.p.

CC(=O)N[C@@H](CS)C(=O)O [NAC, N-acetylcysteine]
MDA levels in the kidney [1, 6]: significant reductions | MDA levels in the kidney [1, 7]: significantly reduced the increase | kidney injury (histological score) [2, 6]: significant reductions | kidney injury (histological score) [2, 7]: significantly reduced | plasma NGAL levels [3]: significantly lower | ICAM-1 staining/expression in kidney medulla [4]: afforded protection | Nitrotyrosine staining/expression in kidney medulla [4]: afforded protection | PAR staining/expression in kidney medulla [4]: afforded protection | plasma creatinine ([5]; 24 h): significant reductions | total protein concentration in the urine ([5]; 24 hours): significant reductions | urine αGST concentration ([5]; 24 hours): significant reduction
